Assay results taken from US9872824B2, “Semi-permanent hair straightening composition and method” (Lubrizol Advanced Materials, Inc., priority 2013, dated 2018).

Columns and labels:
[1] = Solution dipping, flat-iron thermal straightening, imaging analysis of tress length and width; parameters: species or system human; details: for Comparative straightening behaviour in words: imaging analysis data; for Ranking for semi-permanent thermal straightening efficiency: from imaging analysis data
Experimental: (§1) This method is used primarily to screen and select candidate molecules as possible thermally-activated agents. Typically, a solution of the candidate molecule is prepared in a suitable solvent system. The hair-tress is immersed completely in the solution with controlled concentration of candidate thermally-activated agent, pH, temperature and soaking time, such as for up to 60 minutes. Then, the hair-tress is removed from the solution, excess amount of material squeezed out, and the tress is blow-dried to at least 95% dryness before thermal straightening.
2. Image Analysis: the method can be used to quantify the curly hair-tress thermal straightening efficiency for different treatments. Measurements of tress length and width at half-length can be made with this method.
As for other tests, a curly hair-tress was completely immersed in an aqueous solution of a selected one of the small molecules and soaked for 45 minutes. Each solution contained an equimolar amount of the selected small molecule. The hair-tress was then removed from the solution, excess water was squeezed out manually, and the hair dried by a blower dryer to the desired dryness before thermal straightening, as described above.
The imaging analysis method was used to measure the total length and width of the hair-tress before and after the thermal straightening process, and after each shampoo-wash-cycle. More specifically, photographs of hair tresses or bundles of hair tresses were taken against a solid color background with a tripod-mounted digital camera. Illumination was selected to minimize shadows which could affect measurements. The tress was hung from a spindle that enabled the tress to be rotated 90 degrees so that pictures could be taken from four different angles, providing a full view of the tress, with a ruler mounted close to the tress as a scale.
The National Institutes for Health's Image J software program was used for image processing and analysis. […] The curly hair-tress has a contour length of 20 cm, and the top glued part is 2.0 cm wide and is about 0.4 cm of length. Therefore, the effective hair-tress contour length is 19.6 cm.

[2] = Solution-dipping screening, flat-iron straightening, shampoo-wash-fastness; parameters: species or system human; details: used alone under the same conditions
Experimental: as §1
The shampoo-wash-fastness is carried out by applying shampoo (VO5 or Suave shampoo) on the hair-tress which is massaged for 30 seconds followed by rinsing for 60 seconds with running warm water (32-35° C.). The washed hair-tress is then dried at 23° C. and 50% RH. Consecutive shampoo-wash-cycles are carried out without the drying step.
In the following initial screening test, the examination of thermally straightened hair-tresses is performed by visually examining a tress which has been treated in a solution containing up to 30 wt. % of a candidate thermally-activated agent for 45 minutes, flat-ironed at 210° C. (10×12 seconds). After three consecutive wash cycles, if the dried hair-tress (23° C. and 50% RH) becomes curly, this material is considered not effective, i.e. not worth a further evaluation in a cream formulation.

[3] = Solubility in water at room temperature; assay type: physicochemical; details: room temperature (25° C.)
[4] = average over 1-24 shampoos after thermal treatment
[5] = thermally-treated tress, equimolar aqueous solution, 45 min soak
[6] = thermally-treated tress, width at half-length

Row | Compound | Front: Width1/2 [1, 4] [cm] | Lengthmax [1, 4] [cm] | Side: Width1/2 [1, 4] [cm] | Comparative straightening behaviour in words [1] | Lengthmax [1, 5] [cm] | Front: Width1/2 [1, 6] [cm] | Side: Width1/2 [1, 6] [cm] | Ranking for semi-permanent thermal straightening efficiency [1] | Straightening effectiveness relative to ethylene carbonate [2] | Solubility in water [3]
1 | O=C1OCCO1 [EC, ethylene carbonate] | 2.6 ± 0.1 | 19.4 ± 0.1 | 1.5 ± 0.1 | behave similarly to formaldehyde (F) and glyoxylic acid (GA) | 19.4 | 3.6 | 0.9 |  |  | 
2 | O=CC(=O)O [GA, Glyoxylic Acid] | 2.5 ± 0.5 | 19.2 ± 0.3 | 1.4 ± 0.2 |  | 19.5 | 2.8 | 1.2 | GA≈EC≈F≧TC>O>EU>U |  | 
3 | O=C1NCCO1 [O, 2-oxazolidinone] | 3.9 ± 0.2 | 18.4 ± 0.1 | 2.7 ± 0.2 | gives better straightening results than urea (U) and ethylene urea (EU) | 19.3 | 3.3 | 1.7 | GA≈EC≈F≧TC>O>EU>U |  | 
4 | NC(N)=O [U, Urea] | 5.8 ± 0.2 | 18.2 ± 0.2 | 4.0 ± 0.4 | relax the curly hair-tress to some degree | 19.6 | 3.6 | 2.0 | GA≈EC≈F≧TC>O>EU>U |  | 
5 | CC1COC(=O)O1 (centres unmarked) [PC, propylene carbonate] |  |  |  |  |  |  |  |  | less effective | up to 20 wt. %
6 | O=C1NCCN1 [EU, Ethylene Urea] | 4.1 ± 0.2 | 18.2 ± 0.2 | 2.6 ± 0.1 | relax the curly hair-tress to some degree | 19.4 | 3.2 | 1.6 | GA≈EC≈F≧TC>O>EU>U |  | 
7 | O=C1OCC(CO)O1 (centres unmarked) [GC, glycerol carbonate] |  |  |  |  |  |  |  |  | less effective | 
